Values of other authors as cited in US20260275225A1, “LIQUID ALKYLATED PHENYL-ALPHA-NAP[…] REDUCED AQUATIC TOXICITY” (BASF SE, priority 2023, published 2026).
≈ marks a conversion by molar mass, not a printed value.

System: daphnids
Settings: OECD Test 202; from commercially available Amine A safety data sheets

## c1ccc(Nc2cccc3ccccc23)cc1 [Amine A, n-Phenyl-1-naphthylamine]
  EC50: 0.32 µg/mL (≈ 1.46 µM)
